Data on one molecule can be found in US20240342150A1 (priority 2021, published 2024).

One series has as its system SARS-CoV-2 (Wuhan). Description: microbe, parasite or virus in culture. The format is cell-based. The conditions noted are these: Severe acute respiratory syndrome coronavirus 2, Vero C1008.
Another series deals with Vero E6 cells. The conditions noted are these: for % viable cells: not infected Vero E6 cells.

The structures appear in SMILES notation. Like-named read-outs stand apart in the source and are kept apart here.

In the case of `O=C(c1ccc(OCCN2CCCCC2)cc1)c1c(-c2ccc(O)cc2)sc2cc(O)ccc12` [Raloxifene, 1-[6-hydroxy-2-(4-hydroxyphenyl)benzo[b]thien-3-yl]-1-[4-[2-(1-piperidinyl)ethoxy]phenyl]methanone], in the series with SARS-CoV-2 (Wuhan), the IC50 came to 5.92 µM. The “% viable cells” value in the series on Vero E6 cells (Raloxifene 0.23 μM, 48 h) is listed as 100%; in the series on Vero E6 cells (Raloxifene 0.23 μM, 72 h), 102%; in the series on Vero E6 cells (Raloxifene 0.46 μM, 48 h) it was 95%; with Vero E6 cells (Raloxifene 0.46 μM, 72 h) it was 95%; in the series with Vero E6 cells (Raloxifene 0.94 μM, 48 h) it was 95%; in the series on Vero E6 cells (Raloxifene 0.94 μM, 72 h), 96%. The “% viable cells” value was found to be 99% in the series on Vero E6 cells (Raloxifene 1.87 μM, 48 h); 97% in the series with Vero E6 cells (Raloxifene 1.87 μM, 72 h); 93% with Vero E6 cells (Raloxifene 3.75 μM, 48 h); 96% in the series with Vero E6 cells (Raloxifene 3.75 μM, 72 h); 92% with Vero E6 cells (Raloxifene 7.5 μM, 48 h); 97% in the series with Vero E6 cells (Raloxifene 7.5 μM, 72 h). Besides, the “% viable cells” value was 86% in the series with Vero E6 cells (Raloxifene 15 μM, 48 h) and 76% with Vero E6 cells (Raloxifene 15 μM, 72 h). Besides, the “effect on cell viability” value in the series with Vero E6 cells (Raloxifene 15 μM, crystal violet staining) was “reduced percentage of viable cells”; with Vero E6 cells (lower drug concentrations (7.5 to 0.23 μM)) it was “No significant effect on cell viability”.

The term IC50 denotes the concentration that inhibits the measured activity by half. Low readings indicate higher potency, high ones lower potency.
